For 7 compounds, IC50 results are on record in patent US9481654B2, “Compositions and methods for inhibition of the JAK pathway” (Rigel Pharmaceuticals, Inc., priority 2006, dated 2016).

Usually IC50 stands for the point on the concentration scale where inhibition reaches its midpoint.

SMILES strings stand for the structures.

Assay [1] has as its system IL-4 stimulated CD23 upregulation in human Ramos B cells (JAK-1/JAK-3, Stat-6). The experiment in a line: Assay for Ramos B-Cell Line Stimulated with IL-4 (CD23 upregulation, FACS). In kind it is cell-based. The conditions noted are these: Table III Example 3. The procedure, abridged: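 Flow cytometry of CD23 staining after 20-24 h IL-4 stimulation (50 units/mL final) of human Ramos B cells in RPMI with 5% serum. Cells, 5×10^4 per point, received compound or DMSO vehicle for 1 h at 37° C prior to stimulation.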

Assay [2] deals with IFNγ induced ICAM-1 (CD54) up-regulation in A549 lung epithelial cells (JAK/Stat pathway). The experiment in a line: A549 Epithelial Line Stimulated with IFNγ (ICAM-1 surface expression, flow cytometry). The conditions noted are these: Table III Example 5. In kind it is cell-based, human. From the text:
The activity of the compounds of the invention may additionally be characterized by assaying the effect of the 2,4-pyrimidinediamine compounds described herein on A549 lung epithelial cells and U937 cells. A549 lung epithelial cells and U937 cells up-regulate ICAM-1 (CD54) surface expression in response to a variety of different stimuli. Therefore, using ICAM-1 expression as readout, test compound effects on different signaling pathways can be assessed in the same cell type. Stimulation with IL-1β through the IL-1β receptor activates the TRAF6/NFκB pathway resulting in up-regulation of ICAM-1. IFNγ induces ICAM-1 up-regulation through activation of the JAK1/JAK2 pathway. The up-regulation of ICAM-1 can be quantified by flow cytometry across a compound dose curve and EC50 values are calculated. Exemplary assays of this type are described in greater detail in Examples 5 and 6.
A549 lung epithelial cells up-regulate ICAM-1 (CD54) surface expression in response to a variety of different stimuli. Therefore, using ICAM-1 expression as readout, compound effects on different signaling pathways can be assessed in the same cell type. IFNγ up-regulates ICAM-1 through activation of the JAK/Stat pathway. In this example, the up-regulation of ICAM-1 by IFNγ was assessed.
The A549 lung epithelial carcinoma cell line originated from the American Type Culture Collection. Routine culturing was with F12K media (Mediatech Inc., Lenexa, Kans., Cat. No. 10-025-CV) with 10% fetal bovine serum, 100 I.U. penicillin and […] streptomycin (complete F12k media). Cells were incubated in a humidified atmosphere of 5% CO2 at 37° C. Prior to use in the assay, A549 cells were washed with PBS and trypsinized (Mediatech Inc., Cat. No. 25-052-CI) to lift the cells. The trypsin cell suspension was neutralized with complete F12K media and centrifuged to pellet the cells. The cell pellet was resuspended in complete F12K media at a concentration of 2.0×10^5/mL. Cells were seeded at 20,000 per well, 100 μL total volume, in a flat bottom tissue culture plate and allowed to adhere overnight.
On day two, A549 cells were pre-incubated with a 2,4-pyrimidinediamine test compound or DMSO (control) (Sigma-Aldrich, St. Louis, Mo., Catalog No. D2650) for 1 hour. The cells were then stimulated with IFNγ (75 ng/mL) (Peprotech Inc., Rocky Hill, N.J., Cat. No. 300-02) and allowed to incubate for 24 hours. The final test compound dose range was 30 μM to 14 nM in 200 μL F12K media containing 5% FBS, 0.3% DMSO.
On day three, the cell media was removed and the cells were washed with 200 μL PBS (phosphate buffered saline). Each well was trypsinized to dissociate the cells, then neutralized by addition of 200 μL complete F12K media. Cells were pelleted and stained with an APC conjugated mouse anti-human ICAM-1 (CD54) (BD Pharmingen, San Diego, Calif., Catalog #559771) antibody for 20 minutes at 4° C. Cells were washed with ice cold FACS buffer (PBS+2% FBS) and surface ICAM-1 expression was analyzed by flow cytometry. Detection was performed using a BD LSR I System Flow Cytometer, purchased from BD Biosciences of San Jose, Calif. Events were gated for live scatter and the geometric mean was calculated (Becton-Dickinson CellQuest software version 3.3, Franklin Lakes, N.J.). Geometric means were plotted against the compound concentration to generate a dose response curve.

In assay [3] the test system is primary human T-cells (IL-2 induced proliferation, JAK-1/JAK-3, Stat-5). The experiment in a line: Primary Human T-Cell Proliferation Assay Stimulated with IL-2 (CellTiter-Glo). It is filed as cell-based. The conditions noted are these: Table III Example 4. The method in brief:
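Read-out is intracellular ATP luminescence (CellTiter-Glo) after 72 h at 37 °C of IL-2-driven growth. Cells, pre-stimulated via TCR and CD28 then washed free of IL-2, were resuspended in Yssel's medium, given 80 U/mL IL-2 in the cell suspension plus duplicate compound; unstimulated wells lacked IL-2.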
A general note: ATP-based viability assays read luminescence as a measure of living cells.

Assay [4] concerns IFNγ induced ICAM-1 (CD54) up-regulation in U937 human monocytic cells (JAK/Stat pathway). As to the kind of experiment: U937 IFNγ ICAM1 FACS Assay. The conditions noted are these: Table III Example 6; 10 ng/mL IFNγ, 18-24 hours. It is filed as cell-based. The procedure, abridged:
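Flow cytometry gave ICAM-1 (CD54) up-regulation as ICAM-APC geometric mean within the live-cell gate, alongside % viable cells. Human monocytic U937 cells received 3-fold serial compound dilutions for 30 min at 37 °C, followed by IFNγ stimulation lasting 18–24 h. Dose curves yielded EC50s.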

As to `CCCN(Cc1ccc(Nc2nc(Nc3ccc(S(N)(=O)=O)cc3)ncc2F)cc1)S(=O)(=O)CC` [Compound I-17, N2-(4-aminosulfonyl)phenyl-N4-[4-(N-ethylsulfonyl-N-propylamino)methyl]phenyl-5-fluoro-2,4-pyrimidinediamine], the results for the IC50 in assay [1], in assay [2] and in assay [3] were 164 nM, 8240 nM and 1070 nM, respectively.

Take `CC(C)S(=O)(=O)NCc1ccc(Nc2nc(Nc3ccc(S(N)(=O)=O)cc3)ncc2F)cc1` [Compound I-65, N2-(4-aminosulfonyl)phenyl-5-fluoro-N4-(4-isopropylsulfonylaminomethyl)phenyl-2,4-pyrimidinediamine]: the IC50 in assay [1] came to 211 nM; in assay [2], 10400 nM; in assay [3], 634 nM.

For the compound `Cc1ccc(Nc2ncc(C)c(Nc3cccc(CNS(=O)(=O)C4CC4)c3)n2)cc1S(=O)(=O)NCC1CC1` [Compound I-216, N2-(3-cyclopropylmethylaminosulfonyl-4-methyl)phenyl-N4-(3-cyclopropylsulfonylaminomethyl)phenyl-5-methyl-2,4-pyrimidinediamine], the IC50 in assay [1] turned out to be 161 nM; in assay [4] it was 590 nM; in assay [3], 154 nM.

For the compound `COCCCNS(=O)(=O)c1cc(Nc2ncc(C)c(Nc3cccc(CNS(=O)(=O)C4CC4)c3)n2)ccc1C` [Compound I-217, N4-(3-cyclopropylsulfonylaminomethyl)phenyl-N2-[3-(3-methoxypropyl)aminosulfonyl-4-methyl]phenyl-5-methyl-2,4-pyrimidinediamine], the values for the IC50 in assay [1], in assay [4] and in assay [3] were 80.2 nM, 496 nM and 129 nM, respectively.

On to `Cc1cnc(Nc2cccc(S(N)(=O)=O)c2)nc1Nc1ccc2c(c1)CCN(S(=O)(=O)C1CC1)C2` [II-2, N2-(3-aminosulfonyl)phenyl-N4-[(N-cyclopropylsulfonyl)-1,2,3,4-tetrahydroisoquinolin-6-yl]-5-methyl-2,4-pyrimidinediamine], for which the IC50 in assay [1] turned out to be 7.75 nM; in assay [4] it was 107 nM; in assay [3], 30.4 nM.

`Cc1ccc(Nc2ncc(C)c(Nc3ccc4c(c3)CN(S(=O)(=O)C3CC3)C4)n2)cc1S(N)(=O)=O` [II-7, N2-(3-Aminosulfonyl-4-methylphenyl)-N4-[(2-cyclopropylsulfonyl)-isoindolin-5-yl]-5-methyl-2,4-pyrimidinediamine]: the IC50 in assay [1] turned out to be 130 nM; in assay [4], 652 nM; in assay [3], 155 nM.

Regarding `Cc1cnc(Nc2ccc(S(N)(=O)=O)cc2)nc1Nc1ccc2c(c1)CN(S(=O)(=O)C1CC1)C2` [II-9, N2-(4-Aminosulfonyl-phenyl)-N4-[(2-cyclopropylsulfonyl)-isoindolin-5-yl]-5-methyl-2,4-pyrimidinediamine], the IC50 was 118 nM in assay [1], 1110 nM in assay [4] and 277 nM in assay [3].
